Columns and labels:
[1] = system: Malme-3M; assay: Antiproliferative activity against human MALME-3M cells; format: functional, cell-based
[2] = system: MOLT-4; assay: Antiproliferative activity against human MOLT4 cells; format: functional, cell-based

IC50 [2] | Compound | IC50 [1]
1.62 µg/mL | CC(=O)O[C@H]1CC[C@@]2(C)[C@@H](CC[C@]3(C)/C(=C(C)/C=C/C=C(\C)[C@@H](O)CC=C(C)C)C(=O)C[C@@H]23)[C@@]1(C)CO (mixture of isomers) | 0.11 µg/mL
4.11 µg/mL | CC(=O)O[C@@H](CC=C(C)C)/C(C)=C/C=C/C(C)=C1\C(=O)C[C@H]2[C@@]3(C)CC[C@@H](O)[C@](C)(CO)[C@@H]3CC[C@]12C (mixture of isomers) | 0.23 µg/mL
19.5 µg/mL | CC(=O)O[C@@H](CC=C(C)C)/C(C)=C/C=C/C(C)=C1\C(=O)C[C@H]2[C@@]3(C)CC[C@H](OC(C)=O)[C@](C)(CO)[C@@H]3CC[C@]12C (mixture of isomers) | 2.27 µg/mL
16.6 µg/mL | CC(=O)O[C@@H](CC=C(C)C)/C(C)=C/C=C/C(C)=C1\C(=O)C[C@H]2[C@@]3(C)CC[C@@H](OC(C)=O)[C@](C)(CO)[C@@H]3CC[C@]12C (mixture of isomers) | 1.2 µg/mL
